In patent US9629942B2, “Limus-coated medical devices” (Innora GmbH, priority 2010, dated 2017):

How the values were obtained:
neointimal proliferation = assay: Inhibition of neointimal proliferation; type: in vivo; settings: BHT without sirolimus, at the dose level applied
[1] = Stability of sirolimus on a balloon catheter; type: physicochemical; settings: at the dose level applied
Procedure: Balloons for percutaneous transluminal coronary angioplasty (Cordis Fire Star catheters, Cordis Corp., USA) were coated either with sirolimus alone or combined with different amounts of BHT. Coated balloons were tested in respect of sirolimus loss during the passage through a hemostatic valve, Medtronic Launcher JL 3.5 6F guiding catheter, and one minute in stirred blood (37° C.).

Structure (SMILES): Cc1cc(C(C)(C)C)c(O)c(C(C)(C)C)c1 [BHT, butylated hydroxytoluene]
- Inhibition of neointimal proliferation (neointimal proliferation): does not inhibit neointimal proliferation
- Effect of BHT on stability of sirolimus on a balloon catheter [1]: does not significantly increase the stability of sirolimus
